Experimental data: the supplement of paper PMC10307832

Columns and labels:
Experiment in all cases: relative viability (nuclei count vs DMSO), 5 days (fraction); higher = more cells survive
XMD13-2 + Pictilisib = compound: C1CC1C(=O)NC2=NNC3=C2C=CC(=C3)C4=CC(=CC=C4)C(=O)NC5CC5 [XMD13-2] + CS(=O)(=O)N1CCN(Cc2cc3nc(-c4cccc5[nH]ncc45)nc(N4CCOCC4)c3s2)CC1 [Pictilisib] (partner 1 µM)
How it was run: (§1)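 A single step with final 0.05% Triton X-100, 1% formaldehyde and 1 ug/ml Hoechst fixed the cells and stained nuclei 5 days after treatment. Lung cancer cell lines in 1536-well plates had been treated by pin tool the day after seeding with one drug alone or a fixed anchor-drug dose plus five library-drug doses (not always all listed) in √10 steps, and nuclei were counted on 4× images. Relative viability is the ratio of nuclei in treated wells to nuclei in vehicle wells, taken as the median of duplicate plates.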

ALW-II-49-7 + OSI-027 = compound: Cc1ccc(C(=O)Nc2cccc(C(F)(F)F)c2)cc1Nc1cncc(C(N)=O)c1 [ALW-II-49-7] + COc1cccc2cc(-c3nc([C@H]4CC[C@H](C(=O)O)CC4)n4ncnc(N)c34)[nH]c12 [OSI-027] (partner 0.5 µM)
How it was run: as §1

ALW-II-49-7 + Pictilisib = compound: Cc1ccc(C(=O)Nc2cccc(C(F)(F)F)c2)cc1Nc1cncc(C(N)=O)c1 [ALW-II-49-7] + CS(=O)(=O)N1CCN(Cc2cc3nc(-c4cccc5[nH]ncc45)nc(N4CCOCC4)c3s2)CC1 [Pictilisib] (partner 1 µM)
How it was run: as §1

ALW-II-49-7 + Phenformin = compound: Cc1ccc(C(=O)Nc2cccc(C(F)(F)F)c2)cc1Nc1cncc(C(N)=O)c1 [ALW-II-49-7] + N=C(N)NC(=N)NCCc1ccccc1 [Phenformin] (partner 250 µM)
How it was run: as §1

Row | Cell Line | relative viability (XMD13-2 + Pictilisib; first compound 0.05 µM) | relative viability (XMD13-2 + Pictilisib; first compound 0.1581 µM) | relative viability (XMD13-2 + Pictilisib; first compound 0.5 µM) | relative viability (XMD13-2 + Pictilisib; first compound 1.581 µM) | relative viability (XMD13-2 + Pictilisib; first compound 5 µM) | relative viability (ALW-II-49-7 + OSI-027; first compound 0.08 µM) | relative viability (ALW-II-49-7 + OSI-027; first compound 0.253 µM) | relative viability (ALW-II-49-7 + OSI-027; first compound 0.8 µM) | relative viability (ALW-II-49-7 + OSI-027; first compound 2.53 µM) | relative viability (ALW-II-49-7 + OSI-027; first compound 8 µM) | relative viability (ALW-II-49-7 + Pictilisib; first compound 0.08 µM) | relative viability (ALW-II-49-7 + Pictilisib; first compound 0.253 µM) | relative viability (ALW-II-49-7 + Pictilisib; first compound 0.8 µM) | relative viability (ALW-II-49-7 + Pictilisib; first compound 2.53 µM) | relative viability (ALW-II-49-7 + Pictilisib; first compound 8 µM) | relative viability (ALW-II-49-7 + Phenformin; first compound 0.08 µM) | relative viability (ALW-II-49-7 + Phenformin; first compound 0.253 µM) | relative viability (ALW-II-49-7 + Phenformin; first compound 0.8 µM) | relative viability (ALW-II-49-7 + Phenformin; first compound 2.53 µM) | relative viability (ALW-II-49-7 + Phenformin; first compound 8 µM)
1 | 201T | 0.747 | 0.72 | 0.639 | 0.673 | 0.719 | 0.68 | 0.841 | 0.462 | 0.493 | 0.684 | 0.666 | 0.684 | 0.771 | 0.714 | 0.628 | 0.43 | 0.456 | 0.456 | 0.477 | 0.414
2 | A549 | 0.677 | 0.508 | 0.565 | 0.477 | 0.504 |  |  |  |  |  | 0.535 | 0.568 | 0.496 | 0.505 | 0.416 | 0.19 | 0.125 | 0.117 | 0.0978 | 0.201
3 | A-427 | 0.871 | 0.732 | 0.797 | 0.537 | 0.558 | 0.412 | 0.484 | 0.472 | 0.444 | 0.473 | 0.687 | 0.634 | 0.835 | 0.775 | 0.734 | 0.216 | 0.305 | 0.316 | 0.357 | 0.27
4 | ABC-1 | 0.946 | 0.744 | 0.706 | 0.791 | 0.3 | 0.404 | 0.423 | 0.481 | 0.494 | 0.379 | 0.879 | 0.761 | 0.811 | 0.79 | 0.689 | 0.3 | 0.244 | 0.249 | 0.26 | 0.262
5 | BEN | 0.663 | 0.535 | 0.585 | 0.562 | 0.523 | 0.548 | 0.317 | 0.294 | 0.288 | 0.403 | 0.56 | 0.592 | 0.608 |  | 0.567 | 0.33 | 0.264 | 0.25 | 0.233 | 0.287
6 | CAL-12T | 0.531 |  | 0.339 | 0.327 | 0.371 | 0.734 | 0.745 | 0.612 | 0.759 | 0.503 | 0.343 |  |  | 0.715 | 0.395 | 0.543 | 0.498 | 0.603 | 0.627 | 0.538
7 | COR-L23 | 0.8 | 0.72 | 0.857 | 0.818 | 0.64 | 0.556 | 0.709 | 0.828 | 0.715 | 0.677 | 0.839 | 0.548 | 0.739 | 0.72 | 0.779 | 0.461 | 0.448 | 0.426 | 0.462 | 0.363
8 | COR-L 105 | 0.398 | 0.361 | 0.437 | 0.458 | 0.335 | 0.644 | 0.719 | 0.66 | 0.644 | 0.753 | 0.543 | 0.419 | 0.387 | 0.344 | 0.422 | 0.423 | 0.48 | 0.471 | 0.466 | 0.47
9 | Calu-6 | 1.09 | 0.92 | 0.909 | 0.757 | 0.439 |  |  |  |  |  | 1.02 | 0.99 | 0.907 | 0.735 | 0.72 |  |  |  |  | 
